{"source": "paper PMC6156125", "about": "“Chemistry and Hypoglycemic Activity of GPR119 Agonist ZB-16” (Frontiers in Endocrinology, 2018)", "key": {"physchem": {"test": "physchem", "settings": "Britton-Robinson universal buffer, kinetic from dmso stock"}, "[1]": {"tested_on": "intact fasted female Wistar rats", "test": "Hypoglycemic action in intact rats after single oral administration", "type": "in vivo, rat", "settings": "0.1–1 mg/kg oral", "description": "Blood glucose levels were evaluated in the peripheral blood (from the tail vein) of intact fasted (6 h) female Wistar rats using a glucometer Contour TS (Bayer, Germany) at 60, 120, and 180 min after single oral administration of each ZB-09 analogs (in doses of 0.1, 1, and 10 mg/kg). The female animals were used because of their advantages in toxicological studies shown by several authors ([23])."}, "[2]": {"tested_on": "rats with streptozotocin-nicotinamide (STZ-NA) induced T2D", "test": "Hypoglycemic activity after single oral administration in T2D rat model", "type": "in vivo", "settings": "single oral 1 mg/kg, fasted STZ-NA T2D rats, over a 3 h period", "description": "Procedures were performed in 40 female Wistar rats weighing 250–280 g. Streptozotocin-nicotinamide-induced rat model of T2D was used ([24], [25]). Briefly, streptozotocin (Sigma, St. Louis, MO, USA) was administered i.p. to overnight fasted rats (65 mg/kg in 100 mmol/l citrate buffer, Ph 4.5). Nicotinamide (Sigma, St. Louis, MO, USA) (230 mg/kg) dissolved in saline was administered i.p. 15 min before streptozotocin. STZ-NA T2D had been confirmed 72 h after in rats with blood glucose levels in a range 9–14 mmol/l measured in fasting (6 h) conditions. […] […] For OGTT rats received an oral dose of […] glucose dissolved in saline; blood glucose levels were monitored every 30 min for 2 h after glucose administration. Sitagliptin dose was chosen in accordance with published data ([26])."}, "[3]": {"tested_on": "male Wistar rats with streptozotocin-nicotinamide induced type 2 diabetes mellitus (STZ-NA T2D)", "parameters": "method as in PMID 28736546", "settings": "1 mg/kg/day orally for 28 day, ref [11]; cited from earlier work"}, "human GPR119 (hGPR119)": {"molecular_target": "T1, human GPR119 (hGPR119) (Homo sapiens, UniProt Q8TDV5)", "T1 construct": "expressed in transfected cells; host or cells: CHO-K1 (Chinese hamster ovary)", "T1 sequence (Q8TDV5 1-335)": "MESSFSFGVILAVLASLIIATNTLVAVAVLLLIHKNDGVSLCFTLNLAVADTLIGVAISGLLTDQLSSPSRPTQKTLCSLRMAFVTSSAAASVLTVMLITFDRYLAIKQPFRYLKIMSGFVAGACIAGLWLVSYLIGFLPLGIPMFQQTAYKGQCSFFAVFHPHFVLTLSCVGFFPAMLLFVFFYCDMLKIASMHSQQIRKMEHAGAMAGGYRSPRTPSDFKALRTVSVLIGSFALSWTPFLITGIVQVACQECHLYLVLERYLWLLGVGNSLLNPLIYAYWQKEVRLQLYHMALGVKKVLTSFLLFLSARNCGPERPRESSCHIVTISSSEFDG", "test": "Specific (agonistic) activity in vitro, cAMP increase (Lance Ultra cAMP kit) in CHO-K1 cells expressing hGPR119", "type": "cell-based", "settings": "for EC50: CHO-K1 hGPR119, cAMP", "description": "Specific activity was evaluated using an immortalized Chinese hamster ovary cell line CHO-K1 steadily expressed human GPR119 (hGPR119). The cells (10^7 ml^−1) were cultured in Dulbecco's modified Eagle medium (DMEM) modified with 10% fetal bovine serum (FBS), revolved continuously at 50 rpm at 37°C in 8% CO2 for 3–4 days. Lance Ultra cAMP kit (Perkin Elmer, Waltham, MA, USA) was chosen as the experimental platform ([13]). The experiments were performed in accordance to the manufacturer's instructions. The agonistic activity of the test compounds was estimated by the increase in intracellular cAMP concentration, assuming the hGPR119 activation is followed by the activation of cellular adenylate cyclase, which increases intracellular cAMP levels ([4], [14]). Known agonists of hGPR119 receptors were used as positive controls to determine the maximal possible effect (MPE). The activity of test compounds was expressed in terms of median effective concentration (EC50)."}, "[4]": {"test": "Pharmacokinetics in vivo after single oral or intravenous administration", "parameters": "species or system rat", "settings": "rats, 10 mg/kg; for Vd: read-out: Vz", "description": "The pharmacokinetics of ZB-16 in a dose of 10 mg/kg after single oral or intravenous administration was studied in 6 male Wistar rats weighing 250–280 g. The blood from the tail vein (200 μL) was collected before and at 0, 0.25, 0.5, 1, 2, 4, 8, 12, and 24 h after ZB-16 administration. The blood concentrations of the test compounds in animals were evaluated using HPLC-MS/MS. Basic pharmacokinetic parameters were calculated using a non-model method and WinNonlin Professional 6.0 (Pharsight Corporation, Mountain View, CA, USA) based on the experimental concentration-time data obtained on each animal."}, "[5]": {"settings": "male, Wistar, rat, plasma, iv, i.v. injection, Mean ± SD (n = 3)"}, "[6]": {"settings": "male, Wistar, rat, plasma, iv, i.v. injection, individual rat"}, "[7]": {"settings": "male, Wistar, rat, plasma, po, oral administration, Mean ± SD (n = 3)"}, "[8]": {"settings": "male, Wistar, rat, plasma, po, oral administration, individual rat"}, "[9]": {"settings": "oral administration, individual rat"}}, "note": "Values joined by “and” are separate entries in the source; they are usually repeats but may differ in a detail not shown here. Identical values can stand only once. Like-named read-outs stand apart in the source and are kept apart here."}
{"smiles": "O=S1(=O)COc2cc(-c3ccc(OCC4CCN(c5ncc(Cl)cn5)CC4)c(F)c3)ccc21", "note": "[ZB-16]", "values": [{"measurement": "solubility", "setting": "physchem; pH 2, aqueous buffer", "value": 52, "unit": "µM"}, {"measurement": "solubility", "setting": "physchem; pH 4, aqueous buffer", "value": "< 3", "unit": "µM"}, {"measurement": "solubility", "setting": "physchem; pH 7, aqueous buffer", "value": 4, "unit": "µM"}, {"measurement": "blood glucose levels after single oral administration", "setting": "[1]", "value": "significant decrease"}, {"measurement": "decrease of blood glucose levels", "setting": "[2]", "value": 24, "unit": "%"}, {"measurement": "blood glucose levels under fasting conditions", "setting": "[3]", "value": "decreased"}, {"measurement": "glucose utilization", "setting": "[3]", "value": "improved"}, {"measurement": "stimulated secretion of GLP-1 and insulin", "setting": "[3]", "value": "increase"}, {"measurement": "EC50", "setting": "human GPR119 (hGPR119)", "value": 7.25, "unit": "nM"}, {"measurement": "EC50", "setting": "human GPR119 (hGPR119); values of the text", "value": "7.3 to 9.7", "unit": "nM"}, {"measurement": "type of agonism on GPR119", "setting": "human GPR119 (hGPR119); response normalized to control substance (Arena)", "value": "complete agonist"}, {"measurement": "AUC(0-t)", "setting": "[4]; male, Wistar, plasma, iv, i.v. injection, individual rat, read-out: AUC 0-t", "value": 0.244, "unit": "µg·h/mL"}, {"measurement": "Tmax", "setting": "[4]; male, Wistar, plasma, oral administration, individual rat", "value": 4, "unit": "h"}, {"measurement": "half-life", "setting": "[4]; male, Wistar, rat, plasma, read-out: half-life", "value": "> 12", "unit": "h"}, {"measurement": "bioavailability", "setting": "[4]; male, Wistar, rat, plasma, oral vs i.v., read-out: absolute bioavailability", "value": 8, "unit": "%"}, {"measurement": "AUC(0-inf)", "setting": "[4]; [5]", "value": "0.339 ± 0.0972", "unit": "µg·h/mL"}, {"measurement": "clearance", "setting": "[4]; [5]", "value": 6, "unit": "L/h/kg"}, {"measurement": "k el", "setting": "[4]; [5]", "value": "1.39e-05", "unit": "s⁻¹"}, {"measurement": "AUC(0-t)", "setting": "[4]; male, Wistar, rat, plasma, iv, i.v. injection, Mean ± SD (n = 3), read-out: AUC 0-t", "value": "0.218 ± 0.0304", "unit": "µg·h/mL"}, {"measurement": "C0", "setting": "[4]; male, Wistar, rat, plasma, iv, i.v. injection, Mean ± SD (n = 3), read-out: C0", "value": "0.032 ± 0.0087", "unit": "µg/mL"}, {"measurement": "MRT last", "setting": "[4]; male, Wistar, rat, plasma, iv, i.v. injection, Mean ± SD (n = 3), read-out: MRT last", "value": "9 ± 1", "unit": "h"}, {"measurement": "Vd", "setting": "[4]; [5]", "value": "123 ± 18.1", "unit": "L/kg"}, {"measurement": "half-life", "setting": "[4]; male, Wistar, rat, plasma, iv, i.v. injection, Mean ± SD (n = 3), read-out: t1/2 (converted)", "value": "15 ± 5.8", "unit": "h"}, {"measurement": "AUC(0-inf)", "setting": "[4]; [6]", "value": 0.441, "unit": "µg·h/mL"}, {"measurement": "clearance", "setting": "[4]; [6]", "value": 5, "unit": "L/h/kg"}, {"measurement": "k el", "setting": "[4]; [6]", "value": "8.33e-06", "unit": "s⁻¹"}, {"measurement": "AUC(0-t)", "setting": "[4]; male, Wistar, rat, plasma, iv, i.v. injection, individual rat, read-out: AUC 0-t", "value": 0.226, "unit": "µg·h/mL"}, {"measurement": "C0", "setting": "[4]; male, Wistar, rat, plasma, iv, i.v. injection, individual rat, read-out: C0", "value": 0.029, "unit": "µg/mL"}, {"measurement": "MRT last", "setting": "[4]; male, Wistar, rat, plasma, iv, i.v. injection, individual rat, read-out: MRT last", "value": 10, "unit": "h"}, {"measurement": "Vd", "setting": "[4]; [6]", "value": 139, "unit": "L/kg"}, {"measurement": "half-life", "setting": "[4]; male, Wistar, rat, plasma, iv, i.v. injection, individual rat, read-out: t1/2 (converted)", "value": 21, "unit": "h"}, {"measurement": "AUC(0-inf)", "setting": "[4]; [7]", "value": "0.119 ± 0.0119", "unit": "µg·h/mL"}, {"measurement": "k el", "setting": "[4]; [7]", "value": "1.67e-05", "unit": "s⁻¹"}, {"measurement": "AUC(0-t)", "setting": "[4]; male, Wistar, rat, plasma, po, oral administration, Mean ± SD (n = 3), read-out: AUC 0-t", "value": "0.085 ± 0.0176", "unit": "µg·h/mL"}, {"measurement": "Cmax", "setting": "[4]; male, Wistar, rat, plasma, po, oral administration, Mean ± SD (n = 3), read-out: Cmax", "value": "0.006 ± 0.0012", "unit": "µg/mL"}, {"measurement": "MRT last", "setting": "[4]; male, Wistar, rat, plasma, po, oral administration, Mean ± SD (n = 3), read-out: MRT last", "value": "9 ± 1", "unit": "h"}, {"measurement": "half-life", "setting": "[4]; male, Wistar, rat, plasma, po, oral administration, Mean ± SD (n = 3), read-out: t1/2 (converted)", "value": "13 ± 5.2", "unit": "h"}, {"measurement": "AUC(0-inf)", "setting": "[4]; [8]", "value": 0.124, "unit": "µg·h/mL"}, {"measurement": "k el", "setting": "[4]; [8]", "value": "1.11e-05", "unit": "s⁻¹"}, {"measurement": "AUC(0-t)", "setting": "[4]; male, Wistar, rat, plasma, po, oral administration, individual rat, read-out: AUC 0-t", "value": 0.069, "unit": "µg·h/mL"}, {"measurement": "Cmax", "setting": "[4]; male, Wistar, rat, plasma, po, oral administration, individual rat, read-out: Cmax", "value": 0.004, "unit": "µg/mL"}, {"measurement": "MRT last", "setting": "[4]; male, Wistar, rat, plasma, po, oral administration, individual rat, read-out: MRT last", "value": 10, "unit": "h"}, {"measurement": "half-life", "setting": "[4]; male, Wistar, rat, plasma, po, oral administration, individual rat, read-out: t1/2 (converted)", "value": 19, "unit": "h"}, {"measurement": "AUC 0−∞", "setting": "[4]; i.v. injection, individual rat", "value": "0.247 µg·h/mL and 0.329 µg·h/mL"}, {"measurement": "AUC(0-t)", "setting": "[4]; i.v. injection, individual rat", "value": 0.184, "unit": "µg·h/mL"}, {"measurement": "C0", "setting": "[4]; i.v. injection, individual rat", "value": "0.026 µg/mL and 0.042 µg/mL"}, {"measurement": "CL", "setting": "[4]; i.v. injection, individual rat", "value": 8, "unit": "L/h/kg"}, {"measurement": "Kel", "setting": "[4]; i.v. injection, individual rat", "value": 0.06, "unit": "h⁻¹"}, {"measurement": "MRT last", "setting": "[4]; i.v. injection, individual rat", "value": 8, "unit": "h"}, {"measurement": "Vz", "setting": "[4]; i.v. injection, individual rat", "value": "127 L/kg and 104 L/kg"}, {"measurement": "t1/2", "setting": "[4]; i.v. injection, individual rat", "value": "11 h and 12 h"}, {"measurement": "AUC 0−∞", "setting": "[4]; [9]", "value": "0.128 µg·h/mL and 0.105 µg·h/mL"}, {"measurement": "AUC(0-t)", "setting": "[4]; [9]", "value": "0.104 µg·h/mL and 0.083 µg·h/mL"}, {"measurement": "Cmax", "setting": "[4]; [9]", "value": 0.007, "unit": "µg/mL"}, {"measurement": "Kel", "setting": "[4]; [9]", "value": 0.07, "unit": "h⁻¹"}, {"measurement": "t1/2", "setting": "[4]; [9]", "value": 10, "unit": "H"}]}
